Results from US8415469B2, “Compounds and methods for kinase modulation, and indications therefor” (Plexxikon Inc., priority 2005, dated 2013).

Legend:
Assay type in all cases: biochemical
c-Raf-1 = molecular target: T1, c-Raf-1 (Homo sapiens, UniProt P04049); assay: AlphaScreen kinase assay, c-Raf-1; conditions: read-out: IC50, activity toward kinase c-Raf-1
T1 construct: purchased Upstate Biotechnology
Excerpt: (§2) AlphaScreen assay was used to screen additional kinases. The assay is similarly dependent on the phosphorylation of a peptide substrate. In this assay, an antibody that recognizes phosphorylated substrate is bound to an acceptor bead. The peptide substrate is attached to biotin, which binds to a donor head that contains streptavidin. Thus phosphorylated substrate is bound by antibody and streptavidin, bringing the donor and acceptor heads into close proximity when kinase is not inhibited. The donor produces singlet oxygen which results in emission from the acceptor when they are in close proximity. Conversely, when kinase is inhibited, the donor and acceptor beads are not associated and the emission from the acceptor is reduced.
(§3) AlphaScreen assays were done using compounds dissolved in DMSO to a concentration of 20 mM. The compounds were diluted accordingly to the desired final concentrations in each sample well, using 1:3 serial dilution for a total of 8 concentration points. Plates were prepared such that each kinase reaction is 20 μl in 1× kinase buffer, 5% DMSO and 10 μM ATP. After incubation of the kinase reaction for 1 hour at room temperature, 5 μl of donor beads in stop buffer (50 mM EDTA in 1× kinase buffer) was added, the sample was mixed and incubated for 20 minutes at room temperature before adding 5 μl of acceptor beads in stop buffer. The samples were incubated for 60 minutes at room temperature and the signal per well was read on AlphaQuest reader.

IGF1R = IGF1R (Homo sapiens, UniProt P08069); assay: AlphaScreen kinase assay, IGF1R; conditions: read-out: IC50, activity toward kinase IGF1R
IGF1R, sequence (P08069 31-1367): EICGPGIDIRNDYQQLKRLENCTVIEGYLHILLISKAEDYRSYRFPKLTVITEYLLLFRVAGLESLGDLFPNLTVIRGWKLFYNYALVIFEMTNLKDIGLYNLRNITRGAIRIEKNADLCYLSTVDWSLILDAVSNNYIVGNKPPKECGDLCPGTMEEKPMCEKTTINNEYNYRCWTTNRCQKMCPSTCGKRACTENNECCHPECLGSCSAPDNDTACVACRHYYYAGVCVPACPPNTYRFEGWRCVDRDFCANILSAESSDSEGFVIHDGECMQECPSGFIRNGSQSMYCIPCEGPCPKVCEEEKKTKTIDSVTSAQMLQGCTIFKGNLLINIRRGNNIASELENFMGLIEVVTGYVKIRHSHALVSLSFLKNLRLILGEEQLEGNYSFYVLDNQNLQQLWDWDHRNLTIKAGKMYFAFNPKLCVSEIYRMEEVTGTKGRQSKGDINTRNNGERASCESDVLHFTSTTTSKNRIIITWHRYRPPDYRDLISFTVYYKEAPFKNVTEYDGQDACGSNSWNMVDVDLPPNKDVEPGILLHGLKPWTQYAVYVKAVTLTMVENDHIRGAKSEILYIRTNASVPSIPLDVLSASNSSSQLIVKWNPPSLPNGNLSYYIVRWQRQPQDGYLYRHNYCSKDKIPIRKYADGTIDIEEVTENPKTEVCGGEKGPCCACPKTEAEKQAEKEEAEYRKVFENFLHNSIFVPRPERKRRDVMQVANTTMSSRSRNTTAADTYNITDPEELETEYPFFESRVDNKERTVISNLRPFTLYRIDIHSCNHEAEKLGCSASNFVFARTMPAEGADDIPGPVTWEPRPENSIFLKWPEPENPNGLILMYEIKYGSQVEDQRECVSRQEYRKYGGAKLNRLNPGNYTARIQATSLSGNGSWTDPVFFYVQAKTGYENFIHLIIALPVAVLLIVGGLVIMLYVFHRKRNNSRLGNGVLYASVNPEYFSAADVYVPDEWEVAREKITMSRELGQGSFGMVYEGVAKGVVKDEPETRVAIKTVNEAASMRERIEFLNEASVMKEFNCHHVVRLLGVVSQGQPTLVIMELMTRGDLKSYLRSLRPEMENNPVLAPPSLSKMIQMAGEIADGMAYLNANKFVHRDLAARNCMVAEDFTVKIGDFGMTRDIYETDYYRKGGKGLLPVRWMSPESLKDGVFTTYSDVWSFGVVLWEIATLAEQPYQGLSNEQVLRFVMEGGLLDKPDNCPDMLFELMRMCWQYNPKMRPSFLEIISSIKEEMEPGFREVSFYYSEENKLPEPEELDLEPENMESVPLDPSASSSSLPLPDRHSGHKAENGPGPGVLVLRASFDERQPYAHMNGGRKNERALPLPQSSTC

Kit = molecular target: T2, Kit (Homo sapiens, UniProt P10721); assay: AlphaScreen kinase assay, Kit; conditions: read-out: IC50, activity toward kinase Kit
T2 construct: P1332.N6 BI PTP KIT M552-K948-X COD; His6 (N); made in house; host or cells: E. coli (PTP1B co-expressed)
T2 sequence (P10721 with tags, fused parts or gaps): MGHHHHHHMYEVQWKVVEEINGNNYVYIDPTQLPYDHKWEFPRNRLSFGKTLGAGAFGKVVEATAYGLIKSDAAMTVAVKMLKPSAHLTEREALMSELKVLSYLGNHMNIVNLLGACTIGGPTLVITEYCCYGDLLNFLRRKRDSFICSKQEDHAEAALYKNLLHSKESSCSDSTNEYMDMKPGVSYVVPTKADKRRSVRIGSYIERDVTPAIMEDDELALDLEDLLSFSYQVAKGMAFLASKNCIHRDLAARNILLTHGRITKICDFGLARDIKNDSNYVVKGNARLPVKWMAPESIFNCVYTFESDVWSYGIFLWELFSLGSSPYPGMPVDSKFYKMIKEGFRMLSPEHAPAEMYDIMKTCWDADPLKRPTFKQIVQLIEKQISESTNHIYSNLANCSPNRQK

Src = molecular target: T3, Src (Homo sapiens, UniProt P12931); assay: AlphaScreen kinase assay, Src; conditions: read-out: IC50, activity toward kinase Src
T3 construct: P1144. pET-N6 BI-PTP SRC V86-L536-X; made in house
T3 sequence (P12931 with tags, fused parts or gaps): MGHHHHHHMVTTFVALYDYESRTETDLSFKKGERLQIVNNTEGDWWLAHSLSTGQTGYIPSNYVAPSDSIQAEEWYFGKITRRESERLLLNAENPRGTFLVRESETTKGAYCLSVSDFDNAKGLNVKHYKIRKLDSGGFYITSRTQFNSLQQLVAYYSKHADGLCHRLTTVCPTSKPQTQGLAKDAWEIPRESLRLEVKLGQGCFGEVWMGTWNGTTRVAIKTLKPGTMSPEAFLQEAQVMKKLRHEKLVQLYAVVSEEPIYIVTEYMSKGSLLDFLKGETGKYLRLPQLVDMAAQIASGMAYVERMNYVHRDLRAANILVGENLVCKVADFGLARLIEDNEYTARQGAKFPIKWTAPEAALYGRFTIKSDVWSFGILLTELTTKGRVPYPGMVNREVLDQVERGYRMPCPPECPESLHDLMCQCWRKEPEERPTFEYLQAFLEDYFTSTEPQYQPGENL

Pyk2 = molecular target: T4, Pyk2 (Homo sapiens, UniProt Q14289); assay: AlphaScreen kinase assay, Pyk2; conditions: read-out: IC50, activity toward kinase Pyk2
T4 construct: purchased Upstate Biotechnology

B-Raf V600E = molecular target: T5, B-Raf V600E (Homo sapiens, UniProt P15056, V600E); assay: AlphaScreen kinase assay, B-Raf V600E; conditions: read-out: IC50, activity toward kinase B-Raf V600E
T5 construct: P4254. pFastBacBD-CDC37 BRAF D437-K722-X, V600E; His6 with pFastBac HT leader (TEV site) (N); made in house; host or cells: Sf9 (baculovirus; chaperone CDC37 co-expressed)
T5 sequence (P15056 with tags, fused parts or gaps V600E): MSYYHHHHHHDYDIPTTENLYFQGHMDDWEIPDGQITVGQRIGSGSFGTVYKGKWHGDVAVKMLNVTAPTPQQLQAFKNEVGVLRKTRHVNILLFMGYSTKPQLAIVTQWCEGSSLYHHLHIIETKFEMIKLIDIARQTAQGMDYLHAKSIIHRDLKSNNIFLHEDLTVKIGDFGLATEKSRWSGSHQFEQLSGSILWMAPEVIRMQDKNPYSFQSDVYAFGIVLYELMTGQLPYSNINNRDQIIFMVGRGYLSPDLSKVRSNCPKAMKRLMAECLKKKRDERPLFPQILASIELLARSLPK

Jnk1 = molecular target: T6, Jnk1 (Homo sapiens, UniProt P45983); assay: AlphaScreen kinase assay, Jnk1; conditions: read-out: IC50, activity toward kinase Jnk1
T6 construct: purchased Upstate Biotechnology
T6 sequence (P45983 whole entry): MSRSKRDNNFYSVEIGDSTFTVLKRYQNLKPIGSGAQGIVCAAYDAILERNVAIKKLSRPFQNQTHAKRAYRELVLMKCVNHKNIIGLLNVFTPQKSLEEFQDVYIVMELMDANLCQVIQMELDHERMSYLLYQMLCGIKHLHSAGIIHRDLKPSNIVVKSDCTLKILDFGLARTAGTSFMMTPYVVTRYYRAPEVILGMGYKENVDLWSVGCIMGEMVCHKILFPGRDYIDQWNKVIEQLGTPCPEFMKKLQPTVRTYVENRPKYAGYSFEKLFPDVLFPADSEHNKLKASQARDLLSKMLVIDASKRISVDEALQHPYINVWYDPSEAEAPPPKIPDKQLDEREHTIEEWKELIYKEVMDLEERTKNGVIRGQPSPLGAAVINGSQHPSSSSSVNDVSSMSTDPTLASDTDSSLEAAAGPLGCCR

Gsk3β = Gsk3β (Homo sapiens, UniProt P49841); assay: AlphaScreen kinase assay, Gsk3β; conditions: read-out: IC50, activity toward kinase Gsk3β
In short: (§1)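 Here, phosphorylation of a biotin-tagged peptide was sensed by proximity of streptavidin donor and antibody-bearing acceptor beads. Test compounds covered 8 concentrations by 1:3 serial dilution of 20 mM DMSO stocks.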

FGFR1 = molecular target: T7, FGFR1 (Homo sapiens, UniProt P11362, C488A/C584S); assay: AlphaScreen kinase assay, FGFR1; conditions: read-out: IC50, activity toward kinase FGFR
T7 construct: P1351.pET N6 BI-PTP FGFR A458-E765-X C488A, C584S; made in house; host or cells: E. coli (PTP1B co-expressed)
T7 sequence (P11362 458-765 C488A/C584S): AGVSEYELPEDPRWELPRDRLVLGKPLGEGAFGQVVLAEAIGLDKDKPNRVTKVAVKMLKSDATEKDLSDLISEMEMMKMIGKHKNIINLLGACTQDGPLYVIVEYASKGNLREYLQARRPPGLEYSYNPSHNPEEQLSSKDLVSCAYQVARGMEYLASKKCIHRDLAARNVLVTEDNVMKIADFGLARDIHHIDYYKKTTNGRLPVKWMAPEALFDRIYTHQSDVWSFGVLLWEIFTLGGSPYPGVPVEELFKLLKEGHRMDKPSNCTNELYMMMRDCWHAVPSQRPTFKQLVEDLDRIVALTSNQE

Fms = molecular target: T8, Fms (Homo sapiens, UniProt P07333); assay: AlphaScreen kinase assay, Fms; conditions: read-out: IC50, activity toward kinase Fms
T8 construct: purchased Upstate Biotechnology

B-Raf = molecular target: T9, B-Raf (Homo sapiens, UniProt P15056); assay: AlphaScreen kinase assay, B-Raf; conditions: read-out: IC50, activity toward kinase B-Raf
T9 construct: purchased Upstate Biotechnology
T9 sequence (P15056 whole entry): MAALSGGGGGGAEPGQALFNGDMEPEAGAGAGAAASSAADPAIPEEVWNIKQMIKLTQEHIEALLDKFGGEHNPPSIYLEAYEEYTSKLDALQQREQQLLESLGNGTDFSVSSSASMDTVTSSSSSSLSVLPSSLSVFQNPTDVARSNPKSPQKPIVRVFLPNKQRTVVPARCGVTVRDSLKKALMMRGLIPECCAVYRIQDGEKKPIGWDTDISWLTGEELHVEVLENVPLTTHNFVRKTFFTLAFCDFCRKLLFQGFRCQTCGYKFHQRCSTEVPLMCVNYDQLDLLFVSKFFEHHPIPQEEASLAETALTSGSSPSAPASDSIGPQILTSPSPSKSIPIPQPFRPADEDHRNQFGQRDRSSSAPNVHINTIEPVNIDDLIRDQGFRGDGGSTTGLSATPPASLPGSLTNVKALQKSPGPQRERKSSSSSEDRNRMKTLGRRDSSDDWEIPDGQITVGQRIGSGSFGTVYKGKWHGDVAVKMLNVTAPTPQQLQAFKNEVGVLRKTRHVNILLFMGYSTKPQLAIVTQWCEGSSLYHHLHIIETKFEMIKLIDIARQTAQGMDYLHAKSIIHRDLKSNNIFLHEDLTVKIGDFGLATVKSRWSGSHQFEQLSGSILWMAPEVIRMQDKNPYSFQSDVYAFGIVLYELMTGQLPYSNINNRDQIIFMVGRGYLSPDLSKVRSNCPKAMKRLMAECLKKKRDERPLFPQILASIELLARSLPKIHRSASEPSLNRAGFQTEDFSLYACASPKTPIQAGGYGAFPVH

Fak = molecular target: T10, Fak (Homo sapiens, UniProt Q05397); assay: AlphaScreen kinase assay, Fak; conditions: read-out: IC50, activity toward kinase Fak
T10 construct: P1358.pFastBacHtb FAK S411-Q686-X; His6 with pFastBacHTb leader (TEV site) (N); made in house; host or cells: Sf9 (baculovirus)
T10 sequence (Q05397 411-686): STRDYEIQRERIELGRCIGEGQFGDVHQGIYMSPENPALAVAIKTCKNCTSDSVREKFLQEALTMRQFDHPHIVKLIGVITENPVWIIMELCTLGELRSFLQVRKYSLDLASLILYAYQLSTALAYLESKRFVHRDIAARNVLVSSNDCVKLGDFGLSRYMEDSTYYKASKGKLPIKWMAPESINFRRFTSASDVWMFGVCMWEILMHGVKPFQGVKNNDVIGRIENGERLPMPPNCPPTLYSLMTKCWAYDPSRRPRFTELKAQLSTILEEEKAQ

MAP4K4 = MAP4K4 (Homo sapiens, UniProt O95819); assay: AlphaScreen kinase assay, MAP4K4; conditions: read-out: IC50, activity toward kinase MAP4K4
Kdr = molecular target: T11, Kdr (Homo sapiens, UniProt P35968); assay: Z'-Lyte FRET kinase assay (Invitrogen), Kdr; conditions: read-out: IC50, activity toward kinase Kdr
T11 construct: purchased Invitrogen (assay run by Invitrogen)

Stk6 = molecular target: T12, Stk6 (Homo sapiens, UniProt O14965); assay: Z'-Lyte FRET kinase assay (Invitrogen), Stk6; conditions: read-out: IC50, activity toward kinase Stk6
T12 construct: purchased Invitrogen (Carlsbad, Calif.), screening service
T12 sequence (O14965 1-403): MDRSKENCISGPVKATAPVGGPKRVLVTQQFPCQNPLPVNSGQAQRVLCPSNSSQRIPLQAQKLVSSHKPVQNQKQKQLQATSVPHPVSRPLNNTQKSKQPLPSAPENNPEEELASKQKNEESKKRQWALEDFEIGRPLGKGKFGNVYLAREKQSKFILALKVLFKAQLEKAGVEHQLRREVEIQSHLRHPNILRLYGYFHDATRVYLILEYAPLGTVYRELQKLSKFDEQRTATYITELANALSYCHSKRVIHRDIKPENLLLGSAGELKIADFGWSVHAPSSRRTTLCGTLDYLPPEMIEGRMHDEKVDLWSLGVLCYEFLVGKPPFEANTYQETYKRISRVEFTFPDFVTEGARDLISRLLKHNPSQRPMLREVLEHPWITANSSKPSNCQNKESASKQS
Excerpt: (§4) For example, direct radiometric, indirect FRET or AlphaScreen assays may be used to assess the level of phosphorylation of a substrate in the presence of test compounds in order to determine the inhibitory affect of the compound on the kinase. […] For these assays, compounds of the invention were screened by Invitrogen using Z′-Lyte™ kinase assay.
(§5) Briefly, the Invitrogen kinase assay involves use of a specific peptide substrate optimized for each kinase, containing a fluorophore at each end that make up the FRET pair. The peptide sensitivity to proteolytic cleavage depends on phosphorylation of the peptide. Non-phosphorylated peptide is cleaved by a protease while peptide phosphorylated by the kinase is not cleaved. Cleavage of the peptide disrupts the FRET between the donor (coumarin) and acceptor (fluorescein) fluorophores, resulting in an increase in the ratio of donor emission to acceptor emission. The emission ratio of coumarin to fluorescein is used to assess the reaction progress. […] Thus, the assay involves a kinase reaction in the presence of varying concentrations of a given compound, a development reaction with site specific protease, and detection of the fluorescent emission ratio of coumarin and fluorscein. […] Reaction conditions for each kinase are determined to provide optimal reaction times, incubation temperature, kinase and ATP concentrations. Test samples are made up in 1× kinase buffer (50 mM HEPES pH 7.5, 50 mM MgCl2, 5 mM EGTA, 0.05% BRIJ-35) and compound at desired concentration prepared in DMSO such that the final DMSO is 1%. […] All kinase except for MAP2K1 were at 10 μM ATP in the kinase reaction, while MAP2K1 was at 100 μM. Samples are mixed and the kinase reaction is incubated 1 hour at room temperature, after which 5 μl of development solution is added and mixed. After incubation for another 1 hour at room temperature, 5 μl of stop reagent is added to each sample and mixed. The fluorescence signals are measured to determine the emission ratio.

Btk = molecular target: T13, Btk (Homo sapiens, UniProt Q06187); assay: Z'-Lyte FRET kinase assay (Invitrogen), Btk; conditions: read-out: IC50, activity toward kinase Btk
T13 construct: purchased Invitrogen (assay run by Invitrogen)
Excerpt: as §4, §5

Jnk3 = molecular target: T14, Jnk3 (Homo sapiens, UniProt P53779); assay: AlphaScreen kinase assay, Jnk3; conditions: read-out: IC50, activity toward kinase Jnk3
T14 construct: purchased Upstate Biotechnology
Excerpt: as §2, §3

Jnk2 = molecular target: T15, Jnk2 (Homo sapiens, UniProt P45984); assay: AlphaScreen kinase assay, Jnk2; conditions: read-out: IC50, activity toward kinase Jnk2
T15 construct: purchased Roche Protein Expression Group (Indianapolis, IN)
In short: as §1

Ret = molecular target: T16, Ret (Homo sapiens, UniProt P07949); assay: AlphaScreen kinase assay, Ret; conditions: read-out: IC50, activity toward kinase Ret
T16 construct: P1378.pET-SF BI-PTP RET H661-R1012 HIS; made in house
T16 sequence (P07949 with tags, fused parts or gaps): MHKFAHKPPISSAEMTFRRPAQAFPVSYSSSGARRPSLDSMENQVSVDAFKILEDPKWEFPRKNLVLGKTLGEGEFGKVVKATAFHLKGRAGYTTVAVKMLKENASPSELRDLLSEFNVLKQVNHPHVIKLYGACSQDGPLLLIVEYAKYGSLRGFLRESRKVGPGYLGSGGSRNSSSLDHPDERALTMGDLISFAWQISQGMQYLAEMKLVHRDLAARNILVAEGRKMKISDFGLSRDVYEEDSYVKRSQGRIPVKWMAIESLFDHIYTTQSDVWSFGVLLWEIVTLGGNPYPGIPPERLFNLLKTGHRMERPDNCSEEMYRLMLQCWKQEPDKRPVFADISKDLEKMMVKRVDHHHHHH

Met = molecular target: T17, Met (Homo sapiens, UniProt P08581); assay: AlphaScreen kinase assay, Met; conditions: read-out: IC50, activity toward kinase Met
T17 construct: P1818.pETN6 BI-PTP MET G1056-G1364-X WT; His6 (N); made in house; host or cells: E. coli (PTP1B co-expressed)
In short: as §1

MAP2K1 = molecular target: T18, MAP2K1 (Homo sapiens, UniProt Q02750); assay: Z'-Lyte FRET kinase assay (Invitrogen), MAP2K1; conditions: read-out: IC50, activity toward kinase MAP2K1
T18 construct: purchased Invitrogen (assay run by Invitrogen)

Flt1 = molecular target: T19, Flt1 (Homo sapiens, UniProt P17948); assay: AlphaScreen kinase assay, Flt1; conditions: read-out: IC50, activity toward kinase Flt1
T19 construct: P1826.pETN6 BI-PTP FLT1 M799-D1165-X WT; His6 (N); made in house; host or cells: E. coli (PTP1B co-expressed)
T19 sequence (P17948 with tags, fused parts or gaps): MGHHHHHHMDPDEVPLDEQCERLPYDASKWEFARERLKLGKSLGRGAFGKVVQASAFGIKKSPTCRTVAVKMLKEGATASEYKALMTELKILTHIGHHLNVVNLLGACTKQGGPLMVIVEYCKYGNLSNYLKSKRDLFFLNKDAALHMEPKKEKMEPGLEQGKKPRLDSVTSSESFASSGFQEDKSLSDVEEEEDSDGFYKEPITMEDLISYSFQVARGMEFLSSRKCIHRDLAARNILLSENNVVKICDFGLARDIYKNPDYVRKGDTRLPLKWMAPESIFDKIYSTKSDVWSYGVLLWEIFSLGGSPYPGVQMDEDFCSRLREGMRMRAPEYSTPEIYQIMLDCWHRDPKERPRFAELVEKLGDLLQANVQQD

Measured: IC50

T1 sequence (P04049 whole entry): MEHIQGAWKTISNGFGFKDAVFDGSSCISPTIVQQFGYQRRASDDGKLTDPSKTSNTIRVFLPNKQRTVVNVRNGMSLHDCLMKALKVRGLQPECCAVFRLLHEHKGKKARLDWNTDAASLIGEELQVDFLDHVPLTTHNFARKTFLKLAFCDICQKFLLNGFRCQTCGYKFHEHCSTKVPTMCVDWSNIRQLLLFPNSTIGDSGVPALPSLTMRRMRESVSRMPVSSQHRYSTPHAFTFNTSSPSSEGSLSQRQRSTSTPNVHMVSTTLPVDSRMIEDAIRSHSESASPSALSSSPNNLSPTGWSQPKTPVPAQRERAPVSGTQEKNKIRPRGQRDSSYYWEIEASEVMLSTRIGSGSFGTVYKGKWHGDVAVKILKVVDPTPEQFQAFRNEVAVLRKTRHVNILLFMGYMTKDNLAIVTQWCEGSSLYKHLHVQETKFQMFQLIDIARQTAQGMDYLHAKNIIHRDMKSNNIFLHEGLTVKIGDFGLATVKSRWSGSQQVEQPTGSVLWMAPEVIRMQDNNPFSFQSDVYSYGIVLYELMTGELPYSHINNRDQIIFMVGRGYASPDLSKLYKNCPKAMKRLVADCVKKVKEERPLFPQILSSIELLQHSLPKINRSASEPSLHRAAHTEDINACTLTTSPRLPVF

CC(C)S(=O)(=O)Nc1ccc(F)c(C(=O)c2c[nH]c3ncc(-c4cccnc4)cc23)c1F [Compound P-0850, propane-2-sulfonic acid [2,4-difluoro-3-(5-pyridin-3-yl-1H-pyrrolo[2,3-b]pyridin-3-carbonyl)-phenyl]-amide]
not listed: Kdr | Stk6 | Btk | Jnk3 | Jnk2 | Ret | Met | MAP2K1 | Flt1
≤ 10 µM: all other assays above

Nc1cccc(-c2cnc3[nH]ccc3c2)c1 [Compound P-0136]
≤ 10 µM: Kdr | IGF1R | Kit | Stk6

COc1ccc(F)c(C(=O)c2c[nH]c3ncc(-c4cccc(NC(C)=O)c4)cc23)c1F [Compound P-1390, N-{3-[3-(2,6-Difluoro-3-methoxy-benzoyl)-1H-pyrrolo[2,3-b]pyridin-5-yl]-phenyl}-acetamide]
≤ 10 µM: c-Raf-1 | IGF1R | Kit | Src | Btk | B-Raf V600E | Jnk1 | FGFR1 | Fms | B-Raf | Fak

COc1cccc(-c2cnc3[nH]ccc3c2)c1 [Compound P-0213]
≤ 10 µM: Kdr | IGF1R | Kit | Jnk3 | Stk6

OCc1cccc(-c2cnc3[nH]ccc3c2)c1 [Compound P-0157]
≤ 10 µM: Kdr | IGF1R | Kit | Stk6

CS(=O)(=O)Nc1cccc(-c2cnc3[nH]cc(C(=O)c4c(F)ccc(NS(C)(=O)=O)c4F)c3c2)c1 [Compound P-0746, N-{2,4-Difluoro-3-[5-(3-methanesulfonylamino-phenyl)-1H-pyrrolo[2,3-b]pyridine-3-carbonyl]-phenyl}-methanesulfonamide]
≤ 10 µM: c-Raf-1 | IGF1R | Jnk2 | B-Raf V600E | Ret | Met | FGFR1 | B-Raf

CS(=O)(=O)Nc1ccc(F)c(C(=O)c2c[nH]c3ncc(-c4cccnc4)cc23)c1 [Compound P-0079, N-[4-Fluoro-3-(5-pyridin-3-yl-1H-pyrrolo[2,3-b]pyridine-3-carbonyl)-phenyl]-methanesulfonamide]
not listed: Pyk2 | Fak | Kdr | Stk6 | Met | Flt1
≤ 10 µM: all other assays above

CS(=O)(=O)Nc1ccc(F)c(C(=O)c2c[nH]c3ncc(-c4cccnc4)cc23)c1F [Compound P-0700, N-[2,4-Difluoro-3-(5-pyridin-3-yl-1H-pyrrolo[2,3-b]pyridine-3-carbonyl)-phenyl]-methanesulfonamide]
not listed: Fms | Kdr | Stk6 | Btk | Jnk3 | MAP2K1
≤ 10 µM: all other assays above
